# Source: US7750036B2 (SB Pharmco Puerto Rico Inc., priority 2004, dated 2010)
# Like-named read-outs stand apart in the source and are kept apart here.
# How the values were obtained:
# [1] = cited from earlier work
# [2] = physchem; settings: pH 7.1, aqueous buffer
SMILES,solubility of salt generated in situ ([1]; acidic medium which simulates gastric fluid),solubility [2] [µg/mL],solubility ([1]; above a pH of 9.0) [µg/mL],"saturation solubility ([1]; pH=5, room temperature)","saturation solubility ([1]; pH=7, room temperature)"
COc1ccccc1OCCNCC(O)COc1cccc2[nH]c3ccccc3c12.Cl (centres unmarked) [hydrochloride salt of carvedilol],less soluble,,,,
COc1ccccc1OCCNCC(O)COc1cccc2[nH]c3ccccc3c12 (racemic) [Carvedilol],,20 to 30,< 1,about 100 μg/mL,about 23 μg/mL
